pIC50: −log10 of the molar value.
How the values were obtained:
Format in all cases: functional, cell-based
Y79 = assay: Antiproliferative activity against human Y79 cells assessed as inhibition of cell growth
HepG2 = assay: Antiproliferative activity against human HepG2 cells assessed as inhibition of cell growth
A549 = assay: Antiproliferative activity against human A549 cells assessed as inhibition of cell growth
U-937 = assay: Antiproliferative activity against human U-937 cells assessed as inhibition of cell growth

SMILES	pIC50 (HepG2)	pIC50 (A549)	pIC50 (U-937)	pIC50 (Y79)
COc1cc(Nc2nccc(-c3ccc4occc4c3)n2)cc(OC)c1OC	6.10	5.75	7.40	< 5.00
COc1cc(Nc2cc(-c3ccc4cc[nH]c4c3)ncn2)cc(OC)c1OC	< 5.00	< 5.00	< 5.00	< 5.00
COc1cc(Nc2nccc(-c3ccc4c(c3)OCO4)n2)cc(OC)c1OC	5.75	5.50	6.43	< 5.00
COc1cc(Nc2cc(-c3csc4ccccc34)nc(N)n2)cc(OC)c1OC	< 5.00	< 5.00	< 5.00	< 5.00
COc1cc(Nc2nccc(-c3ccc4sc5ccccc5c4c3)n2)cc(OC)c1OC	< 5.00	< 5.00	5.14	< 5.00
COc1cc(Nc2cc(-c3cc4ccccc4o3)nc(N)n2)cc(OC)c1OC	< 5.00	< 5.00	< 5.00	< 5.00
COc1cc(Nc2cc(-c3ccc4ncccc4c3)ncn2)cc(OC)c1OC	< 5.00	< 5.00	< 5.00	< 5.00
COc1cc(Nc2ccnc(-c3ccc4c(c3)CCO4)n2)cc(OC)c1OC	< 5.00	< 5.00	< 5.00	< 5.00
COc1cc(Nc2ccnc(-c3ccc4c(c3)OCCO4)n2)cc(OC)c1OC	< 5.00	< 5.00	< 5.00	< 5.00
COc1cc(Nc2cc(-c3ccc4[nH]c5ccccc5c4c3)ncn2)cc(OC)c1OC	< 5.00	5.52	5.40	< 5.00
COc1cc(Nc2nccc(-c3ccc4cc[nH]c4c3)n2)cc(OC)c1OC	6.43	6.07	6.92	< 5.00
COc1cc(Nc2cc(-c3coc4ccccc34)nc(N)n2)cc(OC)c1OC	5.71	5.77	5.85	< 5.00
COc1cc(Nc2cc(-c3ccc4c(c3)OCO4)ncn2)cc(OC)c1OC	< 5.00	< 5.00	< 5.00	< 5.00
COc1cc(Nc2cc(-c3ccc4c(c3)CCO4)nc(N)n2)cc(OC)c1OC	< 5.00	< 5.00	< 5.00	< 5.00
COc1cc(Nc2ccnc(-c3ccc4c(c3)OCO4)n2)cc(OC)c1OC	< 5.00	< 5.00	< 5.00	< 5.00
COc1cc(Nc2cc(-c3coc4ccccc34)ncn2)cc(OC)c1OC	< 5.00	< 5.00	< 5.00	< 5.00
COc1cc(Nc2nccc(-c3ccc4[nH]c5ccccc5c4c3)n2)cc(OC)c1OC	5.83	5.51	6.05	< 5.00
COc1cc(Nc2nccc(-c3ccc4ncccc4c3)n2)cc(OC)c1OC	6.08	5.75	6.01	< 5.00
COc1cc(Nc2cc(-c3cc4ccccc4o3)ncn2)cc(OC)c1OC	< 5.00	< 5.00	< 5.00	< 5.00
COc1cc(Nc2cc(-c3ccc4occc4c3)ncn2)cc(OC)c1OC	< 5.00	< 5.00	< 5.00	< 5.00
COc1cc(Nc2cc(-c3ccc4c(c3)CCO4)ncn2)cc(OC)c1OC	< 5.00	< 5.00	< 5.00	< 5.00
COc1cc(Nc2cc(-c3ccc4cc[nH]c4c3)nc(N)n2)cc(OC)c1OC	5.60	5.72	5.67	< 5.00
COc1cc(Nc2nccc(-c3ccc4c(c3)CCO4)n2)cc(OC)c1OC	6.33	6.14	6.59	6.22
COc1cc(Nc2cc(-c3cccc4c3OCO4)nc(N)n2)cc(OC)c1OC	< 5.00	< 5.00	< 5.00	< 5.00
COc1cc(Nc2cc(-c3ccc4c(c3)OCCO4)nc(N)n2)cc(OC)c1OC	< 5.00	< 5.00	< 5.00	< 5.00
COc1cc(Nc2cc(-c3ccc4c(c3)OCCO4)ncn2)cc(OC)c1OC	< 5.00	< 5.00	< 5.00	< 5.00
COc1cc(Nc2cc(-c3ccc4occc4c3)nc(N)n2)cc(OC)c1OC	5.36	5.35	5.62	< 5.00
COc1cc(Nc2nccc(-c3coc4ccccc34)n2)cc(OC)c1OC	5.38	5.42	5.45	< 5.00

The next lines start with results.

pIC50 (HepG2)	pIC50 (A549)	pIC50 (U-937)	SMILES	pIC50 (Y79)
5.62	5.85	6.05	COc1cc(Nc2ccnc(-c3coc4ccccc34)n2)cc(OC)c1OC	< 5.00
5.30	5.51	5.81	COc1cc(Nc2ccnc(-c3csc4ccccc34)n2)cc(OC)c1OC	< 5.00
5.91	5.64	6.47	COc1cc(Nc2nccc(-c3cc4ccccc4o3)n2)cc(OC)c1OC	< 5.00
< 5.00	< 5.00	< 5.00	COc1cc(Nc2ccnc(-c3cc4ccccc4s3)n2)cc(OC)c1OC	< 5.00
< 5.00	< 5.00	< 5.00	COc1cc(Nc2cc(-c3cc4ccccc4s3)ncn2)cc(OC)c1OC	< 5.00
< 5.00	< 5.00	< 5.00	COc1cc(Nc2ccnc(-c3cc4ccccc4o3)n2)cc(OC)c1OC	< 5.00
5.40	< 5.00	5.75	COc1cc(Nc2nccc(-c3csc4ccccc34)n2)cc(OC)c1OC	< 5.00
< 5.00	< 5.00	< 5.00	COc1cc(Nc2ccnc(-c3ccc4cc[nH]c4c3)n2)cc(OC)c1OC	< 5.00
< 5.00	< 5.00	< 5.00	COc1cc(Nc2cc(-c3csc4ccccc34)ncn2)cc(OC)c1OC	< 5.00
< 5.00	< 5.00	< 5.00	COc1cc(Nc2ccnc(-c3ccc4occc4c3)n2)cc(OC)c1OC	< 5.00
< 5.00	< 5.00	< 5.00	COc1cc(Nc2cc(-c3cc4ccccc4s3)nc(N)n2)cc(OC)c1OC	< 5.00
< 5.00	< 5.00	< 5.00	COc1cc(Nc2ccnc(-c3ccc4ncccc4c3)n2)cc(OC)c1OC	< 5.00
5.42	5.41	5.88	COc1cc(Nc2ccnc(-c3ccc4[nH]c5ccccc5c4c3)n2)cc(OC)c1OC	< 5.00
6.62	6.34	6.92	COc1cc(Nc2nccc(-c3cc4ccccc4s3)n2)cc(OC)c1OC	< 5.00

Source: ChEMBL document CHEMBL5252592, “Design, synthesis, and biological activity evaluation of novel tubulin polymerization inhibitors based on pyrimidine ring skeletons” (Bioorg Med Chem Lett, 2023)
